Measurements from patent US20100041089A1, “IMPROVED METHOD FOR DETECTING CHEMICAL […]” (priority 2006, published 2010).

System: yeast genes (expressed mRNA)
Assay: DNA chip measurement of expressed mRNA of yeast genes after culture with a toxic chemical substance
Type: cell-based, Saccharomyces cerevisiae S288C
Procedure: Yeast (Saccharomyces cerevisiae S288C (a SUC2mal mel gap2 CUP1)) were cultured at 25° C. on YPD medium (yeast extract 1%, polypeptone 2%, glucose 2%). One of toxic chemical substances was added to the cell at logarithmic growth phase, and the cell was further cultured for two hours. Cell was cultured without any chemical substance in the same condition, and was used as a control. Concentrations of the chemical substances were defined to inhibit the growth of the yeast but not lead to death.
After the completion of cultivation, the culture was centrifuged to collect the cells. To the cells, sodium acetate buffer (50 mM sodium acetate, 10 mM EDTA, 1% SDS) was added, and the mixture was shaken at 65° C. for five minutes, followed by returning to room temperature, and obtaining the supernatant, which procedure was repeated two times. To the supernatant, ½ amount of a solution of phenol/chloroform (1:1) was added, and the mixture was centrifuged to give a supernatant, an equal amount of chloroform was added, and the mixture was centrifuged to give a supernatant. To the supernatant, an equal amount of isopropanol containing 0.3 M sodium acetate was added, and the mixture was allowed to stand at room temperature for 30 minutes, after which the mixture was centrifuged to give sediment of the whole RNAs. Seventy % ethanol was added to the sediment, and the mixture was again centrifuged to give sediment, which was then dried and dissolved in water. mRNA was isolated from the whole RNAs as followings. In view of the fact that a poly A chain is attached to the 3′ terminus of mRNA, a polynucleotide having a poly T structure which was immobilized on the surface of latex beads was used to trap the mRNA, and then the mRNA was washed and eluted with spine column (Oligotex-dT30<Super>mRNA Purification Kit, Takara). Reverse transcription of the mRNA was conducted with a reverse transcriptase (Super Script II Reverse Transcriptase; catalogue No. 18064-014, GibcoBRL) using fluorescence-labeled nucleotides to give cDNAs that were introduced with Cy3-dUTP or Cy5-dUTP during the reverse transcription.
The labeled cDNAs were dissolved in TE buffer (10 mM Tris-HCl/1 mM EDTA, pH 8.0), and the solution was dropped on the DNA chip containing the whole genes of yeast (DNA Chip Research Inc. Japan) so that the cDNAs were hybridized on the DNA chip at 65° C. for over 12 hours. The fluoresces intensity of the DNA chip was read with a scanner, and the ratio relative to the fluorescence intensity resulting from the absence of chemical substance was estimated as the following, which is shown in Tables 1 to 9.
In the Tables, “Intensity” indicated in the rightmost column is a value of the level of expressed mRNA of each gene in control cells as divided by the average level of the expressions of the whole genes. A gene of which mRNA level is lower in control, and is higher in cases of addition of chemical substance, is especially useful in the detection of toxic substances.
Here, when a ratio of an amount of mRNA expressed in the presence of the chemical substance to an amount of mRNA expressed in the absence of the chemical substance is two or more, then it is considered significant.

Measured: The level of expressed mRNA in the presence of chemical substance/The level of expressed mRNA in the absence of chemical substance

COc1cc(CNC(=O)CCCCC=CC(C)C)ccc1O [(12), 8-Methyl-N-vanillyl-6-nonenamide]
2.4: yeast gene YGR281W (transport facilitation protein gene) | yeast gene YJL052W, cultured for two hours with substance
2.1: yeast gene YDR476C, cultured two hours with substance | yeast gene YGR284C, cultured two hours with substance
2.6: yeast gene YHL047C (transport facilitation protein gene)
1.4: yeast gene YBL107C, cultured two hours with substance | yeast gene YDR391C, cultured two hours with substance | yeast gene YGR110W, cultured two hours with substance | yeast gene YGR146C, cultured two hours with substance | yeast gene YIL117C, cultured two hours with substance
3.6: yeast gene YHR054C, cultured two hours with substance
2.2: yeast gene YHR179W, cultured for two hours with substance
0.6: yeast gene YAL053W, cultured two hours with substance
2.0: yeast gene YGR142W, cultured two hours with substance
0.8: yeast gene YAR028W, cultured two hours with substance | yeast gene YBR273C, cultured two hours with substance | yeast gene YDR003W, cultured two hours with substance | yeast gene YDR511W, cultured two hours with substance | yeast gene YFL024C, cultured two hours with substance | yeast gene YGL037C, cultured two hours with substance
1.3: yeast gene YDR486C, cultured two hours with substance | yeast gene YGL053W, cultured two hours with substance | yeast gene YGL209W | yeast gene YGR282C | yeast gene YJL082W, cultured two hours with substance
3.9: yeast gene YDR406W (transport facilitation protein gene)
3.3: yeast gene YGR035C, cultured two hours with substance
1.6: yeast gene YBR203W, cultured two hours with substance | yeast gene YGL062W, cultured for two hours with substance | yeast gene YGL121C, cultured two hours with substance | yeast gene YGR221C, cultured two hours with substance | yeast gene YHL038C, mitochondria-located protein gene, cultured two hours with substance | yeast gene YIL077C, cultured two hours with the substance
0.7: yeast gene YBL001C | yeast gene YCR037C | yeast gene YDR019C | yeast gene YFL032W, cultured two hours with substance | yeast gene YGR130C, cultured two hours with substance | yeast gene YIL024C, cultured two hours with substance | yeast gene YIL167W | yeast gene YJL020C, cultured two hours with substance
1.1: yeast gene YAL012W, metabolism protein genes | yeast gene YEL001C, cultured two hours with substance | yeast gene YER035W, cultured two hours with substance | yeast gene YGL047W, cultured two hours with substance | yeast gene YGL104C | yeast gene YGL136C, cultured two hours with substance | yeast gene YHR199C, cultured two hours with substance | yeast gene YIL087C, cultured two hours with substance | yeast gene YIL154C | yeast gene YJL149W, cultured two hours with substance
1.2: yeast gene YBL048W, cultured two hours with substance | yeast gene YDL072C, cultured two hours with substance | yeast gene YFL006W, cultured two hours with substance
0.9: yeast gene YBR222C | yeast gene YCR048W | yeast gene YDL204W, cultured two hours with substance | yeast gene YDR031W, cultured two hours with substance | yeast gene YDR410C | yeast gene YDR497C, metabolism protein genes | yeast gene YDR545W, cultured two hours with substance | yeast gene YER038C, cultured two hours with substance | yeast gene YER079W, cultured two hours with substance | yeast gene YER096W, metabolism protein genes | yeast gene YER106W, cultured two hours with substance | yeast gene YER175C, cultured two hours with substance | yeast gene YGL001C | yeast gene YGL115W (stress protein genes) | yeast gene YGL199C, cultured two hours with substance | yeast gene YGR055W, metabolism protein genes | yeast gene YGR154C, cultured two hours with substance | yeast gene YHR111W, metabolism protein genes | yeast gene YIL023C, cultured two hours with substance
2.8: yeast gene YAL034C, cultured two hours with substance | yeast gene YDL174C, cultured for two hours with substance
16.3: yeast gene YBR072W (stress protein genes)
1.0: yeast gene YAL054C | yeast gene YDL222C, cultured two hours with substance | yeast gene YDR009W | yeast gene YDR330W, cultured two hours with substance | yeast gene YER158C, cultured two hours with substance | yeast gene YER163C, cultured two hours with substance | yeast gene YGR101W, cultured two hours with substance | yeast gene YHR209W, cultured two hours with substance | yeast gene YIL041W, cultured two hours with substance | yeast gene YJL057C, cultured two hours with substance | yeast gene YJL066C, cultured two hours with substance
1.7: yeast gene YBR256C | yeast gene YCL009C | yeast gene YER004W, cultured two hours with substance | yeast gene YER026C
1.8: yeast gene YHR138C, cultured two hours with substance
0.4: yeast gene YJL108C, cultured two hours with substance
1.5: yeast gene YDL110C, cultured two hours with substance | yeast gene YDR411C, cultured two hours with substance | yeast gene YDR534C, cultured two hours with substance | yeast gene YFL010C, cultured two hours with substance | yeast gene YGL117W, cultured two hours with substance | yeast gene YHR029C, cultured two hours with substance
4.3: yeast gene YDR070C, cultured two hours with substance
